Source: patent EP4252780A1, “BIOLOGICALLY ACTIVE MATERIAL CONJUGATE HAVING BIOTIN MOIETY, FATTY ACID MOIETY, OR COMBINATION THEREOF COUPLED THERETO” (priority 2020, dated 2022)
Non-standard residues stand in square brackets, D forms with d. No end group written: not given here. F14 = C20-Glu-EG2-EG2-MAL; B38 = not defined here; Aib = CC(C)(N)C(=O)O

What was measured:
[1] = body weight reduction and feed intake over 24 hours after oral administration; type: in vivo; conditions: oral administration to mice
[2] = body weight change after 2 weeks of subcutaneous administration in obese mouse model; type: in vivo; conditions: subcutaneous for 2 weeks, FIG. 10
Method: Conjugates 58 and 59 were subcutaneously administered for 2 weeks into an obese mouse model, then body weight changes were measured.

Substance | Weight loss (%) compared to untreated group [1] [%] | body weight compared to the untreated group [2]
Conjugate 33: polypeptide SEQ ID NO 24; biotin moiety B38 at K1 (K(B38)CNTATCATQRLANFLVHSSNNFGPILPPTNVGSNTY; ends and bridges not checked) | -4.07 ± 1.30 | 
Conjugate 59: polypeptide SEQ ID NO 8; biotin moiety B38 at K12; fatty acid moiety F14 at C30 (H[Aib]QGTFTSDYSK(B38)YLDEQAAKEFVQWLMNTC(F14); reading uncertain) |  | substantially reduced
Conjugate 61: polypeptide SEQ ID NO 24; biotin moiety B38 at K1; fatty acid moiety F11 at K1 (K(B38)CNTATCATQRLANFLVHSSNNFGPILPPTNVGSNTY; ends and bridges not checked; also: fatty acid F11 also at K1, attachment order not given here) | -2.96 ± 4.22 | 
Polypeptide SEQ ID NO 24: amylin derivative KCNTATCATQRLANFLVHSSNNFGPILPPTNVGSNTY (Amylin derivative) [reference compound] | -2.63 ± 1.06 | 
Polypeptide SEQ ID NO 26: amylin derivative KCNTATCATQRLADFLLRHSSPNFGAIPSSTNVGSRTY (KCNTATCATQRLADFLRHSSPNFGAIPSSTNVGSRTY; Amylin derivative) [reference compound] | -3.13 ± 1.05 | 
Polypeptide SEQ ID NO 28: amylin derivative KCNTATCATQRLADFLLRHSSNNFGAIPSSTNVGSRTY (KCNTATCATQRLADFLRHSSNNFGAIPSSTNVGSRTY; Amylin derivative) [reference compound] | -1.11 ± 0.84 | 
Polypeptide SEQ ID NO 30: amylin derivative RCNTATCATQRLADFLLRHSSNNFGAIPSSTNVGSKTY (RCNTATCATQRLADFLRHSSNNFGAIPSSTNVGSKTY; Amylin derivative) [reference compound] | -1.17 ± 0.76 | 
